From article PMC5485613, “A novel TRPM8 agonist relieves dry eye discomfort” (BMC Ophthalmology, 2017)

Assays:
human TRPM8 = target: T1, human TRPM8 (Homo sapiens, UniProt Q7Z2W7); test: TRPM8 calcium assay (Fluo-8, FLIPR) in transfected CHO cells; format: cell-based; conditions: x Menthol
T1 construct: host or cells: CHO cells, stably transfected
Procedure: Compounds were tested on Chinese Hamster Ovary (CHO) cells stably transfected with human TRPM8 cDNAs using a Fluo-8 calcium kit and a Fluorescence Imaging Plate Reader ([…]™) instrument. […] Solutions were prepared by diluting stock solutions in a HEPES-buffered physiological saline (HBPS) solution. Test compound and control formulations were loaded in polypropylene or glass-lined 384-well plates, and placed into the FLIPR instrument (Molecular Devices Corporation, Union City, CA, USA). Each was tested at 8 concentrations with n = 4 replicates per determination. […] For […]™ assay, cells were plated in 384-well black wall, flat clear-bottom microtiter plates (Type: BD Biocoat Poly-D-Lysine Multiwell Cell Culture Plate) at approximately 30,000 cells per well. Cells were incubated at 37 °C overnight to reach a near confluent monolayer appropriate for use in a fluorescence assay. The test procedure was to remove the growth media and to add 40 μL of HBPS containing Fluo-8 for 30 min at 37 °C. 10 μL of test compound, vehicle, or control solutions in HBPS were added to each well and read for 4 min. Concentration-response data were analyzed via the FLIPR Control software that is supplied with the FLIPR System (MDS-AT) and fitted to a Hill equation.

human TRPA1 = target: T2, human TRPA1 (Homo sapiens, UniProt O75762); test: TRPA1 calcium imaging (Fura-2) in transfected KNRK cells; format: cell-based; conditions: 10 μM
T2 construct: expressed in transfected cells; host or cells: KNRK cells (rat kidney), transiently transfected
Procedure: To further examine the specificity of C3, tests were conducted on TRPV1 channels and TRPA1 channels expressed in Kirsten murine sarcoma virus transformed rat kidney (KNRK) cells. KNRK cells were cultured as a monolayer and maintained in Dulbeccos’s Modified Eagles’s Medium (Life Technologies), supplemented with 10% fetal bovine serum (Life Technologies), 100 units/mL penicillin and 100 μg/mL streptomycin, in an incubator of 5% CO2 at 37 °C. After suspension, the cells were coated on cover slips for 12 h, then transiently transfected with cDNA (pc3.1 DNA) for TRPV1 or TRPA1 with Lipofectamine 2000 (Invitrogen) for 24 h, and loaded with Fura-2 AM™ (Molecular Probes) for 40 min at 37 °C. After washing and recovery, KNRK cells were imaged at 340 and 380 nm excitation to detect free calcium influx. An increase of 50% of the 340/380 ratio was considered as the response threshold which were measured under masked conditions for plasmids. Compounds were applied to the bath and calcium response was acquired by an inverted Nikon fluorescence microscope with a CoolSnap HQ2 CCD camera (Photometrics, Tucson, AZ). Data were quantified offline with the Nikon-NIS program.

rats = test: Shaking activity (wet dog shakes) after intravenous, perioral and topical administration; format: in vivo, rat
Procedure: Male rats weighing 220–260 g were anesthetized with sodium pentobarbital, 55 mg/kg intraperitoneal, and after the loss of the righting reflex, animals were placed on a table and body temperature was recorded. The femoral vein was cannulated with polyethylene-20 tubing connected to a 1 mL syringe. For the intravenous and perioral routes, 0.1 mL of solution was given per 100 g body weight at a dose of 2 mg/kg or 20 mg/kg, respectively. For topical administration, the abdominal skin was shaved and 20 μL of the pure Dapa was applied with a micropipette on a ~ 1 cm diameter circle of skin, enclosed with a ring of cream (Baby cream “NevskayakosmetikaDetskyi” NevskayaKosmetika Inc., Saint-Petersburg 192,029). Animals were observed and shaking frequency counted for 15, 40 min and 1 h after intravenous, perioral, and topical applications, respectively. There were n = 3 to 6 rats per test substance. For the intravenous route, two trials were conducted in the same animal with a 10 to 15 min interval between doses. The shaking frequency shown in the graphs is for the second trial. Shaking behavior are rapid alternating contractions of the supination and pronation muscles about the spinal axis, and can be readily observed in the readily observed in the unanesthetized or anesthetized state and counted (Additional file 2: Movie S1). The pattern of response after intravenous, perioral, and topical delivery provides information on the ability of the molecule to cross membrane barriers. Experiments on rats were ended by euthanasia with intraperitoneal injection of sodium pentobarbital 150 mg/kg.
Supplementary file 12886_2017_495_MOESM2_ESM.mp4: Additional file 2: Movie S1. Shaking response to a 1-diisopropylphosphorylnonane. Video recording 20 to 40 min period after oral dosing with C3 at 50 mg/kg. C3 was dissolved in 5% ethanol-95% R-1,2-propanediol. The total observation period was 120 min. […] (MP4 3699 kb)

[1] = test system: patients with dry eye disease; test: Four times daily application for 2 weeks in patients with dry eye disease (Expt 2); format: in vivo, human
Procedure: Initially, a total of 60 additional patients fulfilling the inclusion criteria were assessed for eligibility, and 54 subjects who decided to participate were randomized into two groups as described above (Additional file 1: Figure S4). Vehicle or C3 were prepared as 1 mL solutions placed into unit applicators called Swabdose™ made by Unicep Corporation, Sandpoint, ID. These applicators are singly encased in a polypropylene container with a 6.35 mm cotton tip attached to a 74.6 mm polystyrene handle. USP purified water (placebo units) or a C3 sample (2 mg/mL in USP purified water) was prepared onsite under clean conditions and packaged with automated equipment. Each subject was given 14 Swabdoses for the 2-week study period. The subjects were instructed to apply the cotton-tipped applicator to the edges of the closed eyelids once every 6 h per day for 14 days. The applicators were pre-weighed and the subjects were told to use to same applicator for each day and to save the applicator in a plastic bag at the end of the day. The applicators were collected, weighed and compared with the weight before application. TBUT, basal tear secretion, and corneal staining assessed by KEP scores were analyzed before and at 1 and 2 weeks thereafter. For TBUT, basal tear secretion, and KEP only the results from the right eye were scored for data analysis.
Three questionnaires were used at each patient visit to analyze the effects of treatment on ocular discomfort. Firstly, DED symptoms were assessed using a visual analogue scale (VAS) score of 1 to 10. Next, symptoms were assessed using the ocular surface disease index (OSDI) questionnaire, consisting of 12 questions graded on a scale from 0 to 4 (0 = “none of the time” and 4 = “all the time”). An overall score was calculated (0–100) by using the following equation: (25 × (sum of answered question scores/number of questions answered)). Participants were also asked to grade five symptoms associated with the CVS. The symptoms of fatigue, burning, dryness, blurred vision, and dullness of vision was ranked on a scale of 0 to 6 (0 = “no symptom”, 6 = “very severe symptom”) and the average aggregate score for the two test groups are reported.

[2] = 2 mg/mL four times a day, versus vehicle
[3] = 2 mg/mL four times a day, week 1 or week 2, n = 20

T1 sequence (Q7Z2W7 whole entry): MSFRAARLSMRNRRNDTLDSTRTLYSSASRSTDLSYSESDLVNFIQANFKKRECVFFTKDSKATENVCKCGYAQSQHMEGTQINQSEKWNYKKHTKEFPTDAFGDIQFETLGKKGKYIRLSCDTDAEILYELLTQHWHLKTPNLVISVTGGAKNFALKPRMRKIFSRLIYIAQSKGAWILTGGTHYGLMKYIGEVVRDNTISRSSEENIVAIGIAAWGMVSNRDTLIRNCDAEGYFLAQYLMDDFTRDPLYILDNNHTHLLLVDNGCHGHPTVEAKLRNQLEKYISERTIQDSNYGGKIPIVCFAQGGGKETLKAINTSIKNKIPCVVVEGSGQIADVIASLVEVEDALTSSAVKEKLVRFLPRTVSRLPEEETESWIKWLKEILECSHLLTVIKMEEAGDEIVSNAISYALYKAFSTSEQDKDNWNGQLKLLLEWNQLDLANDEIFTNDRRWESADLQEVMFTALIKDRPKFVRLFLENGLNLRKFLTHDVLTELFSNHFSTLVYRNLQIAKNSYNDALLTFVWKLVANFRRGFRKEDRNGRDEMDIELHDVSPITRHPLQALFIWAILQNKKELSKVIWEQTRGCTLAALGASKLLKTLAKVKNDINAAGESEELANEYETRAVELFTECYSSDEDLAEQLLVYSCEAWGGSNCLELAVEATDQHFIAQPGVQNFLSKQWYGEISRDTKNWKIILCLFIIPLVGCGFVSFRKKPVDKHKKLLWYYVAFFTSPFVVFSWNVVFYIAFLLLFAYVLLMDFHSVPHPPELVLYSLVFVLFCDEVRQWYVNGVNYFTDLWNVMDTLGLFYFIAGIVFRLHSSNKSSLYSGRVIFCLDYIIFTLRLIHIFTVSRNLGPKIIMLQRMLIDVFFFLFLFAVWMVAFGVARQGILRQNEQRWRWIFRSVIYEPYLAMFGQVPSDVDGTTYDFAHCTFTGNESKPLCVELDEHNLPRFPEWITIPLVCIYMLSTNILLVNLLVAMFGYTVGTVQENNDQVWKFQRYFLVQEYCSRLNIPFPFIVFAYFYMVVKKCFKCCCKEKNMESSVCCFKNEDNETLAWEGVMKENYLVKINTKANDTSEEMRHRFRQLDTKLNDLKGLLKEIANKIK
T2 sequence (O75762 whole entry): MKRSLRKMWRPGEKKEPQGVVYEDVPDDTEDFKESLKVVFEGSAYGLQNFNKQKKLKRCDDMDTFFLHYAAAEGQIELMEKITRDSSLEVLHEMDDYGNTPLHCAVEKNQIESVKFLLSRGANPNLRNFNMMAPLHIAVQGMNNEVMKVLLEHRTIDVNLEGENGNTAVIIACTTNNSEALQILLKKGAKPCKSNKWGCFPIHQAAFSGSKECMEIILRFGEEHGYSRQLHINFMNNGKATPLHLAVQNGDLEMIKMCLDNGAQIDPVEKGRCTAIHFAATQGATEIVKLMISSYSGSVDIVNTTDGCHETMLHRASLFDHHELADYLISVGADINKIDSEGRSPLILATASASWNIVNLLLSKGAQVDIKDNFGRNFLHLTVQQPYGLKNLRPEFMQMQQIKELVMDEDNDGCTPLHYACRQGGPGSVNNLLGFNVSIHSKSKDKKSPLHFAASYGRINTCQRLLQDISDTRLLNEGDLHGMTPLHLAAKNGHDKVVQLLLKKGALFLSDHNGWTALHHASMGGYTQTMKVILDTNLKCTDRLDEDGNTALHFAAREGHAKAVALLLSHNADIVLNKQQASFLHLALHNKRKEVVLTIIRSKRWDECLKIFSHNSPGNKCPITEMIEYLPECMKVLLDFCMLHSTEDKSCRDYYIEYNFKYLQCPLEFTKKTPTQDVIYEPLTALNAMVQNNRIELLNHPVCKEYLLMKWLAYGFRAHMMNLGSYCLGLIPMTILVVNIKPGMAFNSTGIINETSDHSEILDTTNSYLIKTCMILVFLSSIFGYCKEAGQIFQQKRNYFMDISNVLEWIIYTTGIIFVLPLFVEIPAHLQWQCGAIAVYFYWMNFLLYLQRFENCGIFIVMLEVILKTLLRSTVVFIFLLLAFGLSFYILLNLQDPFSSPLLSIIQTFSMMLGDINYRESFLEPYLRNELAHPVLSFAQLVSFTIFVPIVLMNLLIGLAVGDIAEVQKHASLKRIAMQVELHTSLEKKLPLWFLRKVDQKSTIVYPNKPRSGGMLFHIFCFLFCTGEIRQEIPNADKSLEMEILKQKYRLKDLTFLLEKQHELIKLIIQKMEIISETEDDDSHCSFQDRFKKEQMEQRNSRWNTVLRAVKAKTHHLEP

**Q.** With CCCCCCCCCP(=O)(C(C)C)C(C)C [C3, 1-diisopropylphosphorylnonane] as the molecule, how does the “relative potency to l-menthol (menthol = 1)” value (human TRPM8) read?
**A.** 4.0

**Q.** And the “activation of TRPA1 (calcium response)” value (human TRPA1)?
**A.** inactive

**Q.** What about the “Shaking [15 min]” value (rats; intravenous 2 mg/kg, anesthetized rats) of the same molecule?
**A.** active

**Q.** What about the “body shakes after oral dosing” value (rats; oral 20 mg/kg, anesthetized and unanesthetized state) of the same molecule?
**A.** no body shakes

**Q.** What about the “total number of shaking in the most active rat” value (rats; oral 50 mg/kg in 5% ethanol-95% R-1,2-propanediol, observation 120 min) of the same molecule?
**A.** 56 shakes

**Q.** And the “Shaking [40 min]” value (rats; perioral 20 mg/kg, pentobarbital-anesthetized rats)?
**A.** not active

**Q.** And the “CVS type of symptoms” value ([1]; 2 mg/mL four times a day, 1 and 2 weeks)?
**A.** significantly improved

**Q.** What about the basal tear secretion ([1]; 2 mg/mL four times a day, 1 and 2 weeks, versus baseline and vehicle) of the same molecule?
**A.** significantly increased

**Q.** What about the “severity of symptoms by VAS score” value [1, 2] of the same molecule?
**A.** significantly improved at week 2 but not at week 1

**Q.** And the “total OSDI score” value [1, 2]?
**A.** significantly improved at week 2 but not at week 1

**Q.** What about the KEP [1, 3] of the same molecule?
**A.** no significant changes

**Q.** What about the TBUT [1, 3] of the same molecule?
**A.** no significant changes

**Q.** What about the “adverse effect (ocular pain, irritation, discomfort)” value ([1]; 2 weeks study) of the same molecule?
**A.** No significant adverse effect
